US20110207807A1, “NEW USE FOR HOMOISOFLAVONE OR A SALT THEREOF” (Catholic University Industry Academy Cooperation Foundation, priority 2008, published 2011)

What was measured:
IL-8 = experiment: UV-induced IL-8 mRNA expression in HaCaT cells (real-time PCR); type: cell-based, human; conditions: 1 μg/mL, UV 100 J/m^2, compared to control group (FIG. 3)
Description: 1×10^6 HaCaT cells were inoculated on a 100-mm culture dish and cultured in DMEM containing 10% FBS for 24 hour. Then, the cells were starved by culturing for 24 hours in DMEM containing 1% FBS. Then, after treating with homoisoflavanone at 1 μg/mL for 1 hour, the cells were washed 3 times with PBS and irradiated with UV at 100 J/m^2 to induce increase of cytokines. Immediately after the UV radiation, the cells were washed again with PBS and further cultured for 2 or 5 hours in DMEM containing 1% FBS which had been treated with homoisoflavanone at the same concentration.
After extracting RNA from the cells of each test group using TRIzol (Invitrogen, USA), cDNA was prepared by carrying out PCR (PTC-225 Peltier thermal cycler, MJ Research, USA). Then, the mRNA expression of IL-6, IL-8 and TNF-α was measured through real-time PCR (Roter Gene 6000 series, Corbett Research, Australia) using the cDNA as template and using commercially available IL-6, IL-8 and TNF-α primers. The expression level of the pro-inflammatory cytokines was compared relative to the non-treated group.

ERK [1] = experiment: ERK phosphorylation induced by PMA and A23187 in HMC-1 (Western blot); type: cell-based, human; conditions: HMC-1, 2 μg/mL, 50 nM PMA + 1 μM A23187, 30 minutes (FIG. 7c)
Description: 1×10^6 HMC-1 cells were inoculated on a 100-mm culture dish and cultured in IMDM containing 10% FBS for 48 hours. […] Then, Western blotting was carried out in the same manner as in Example 2-1 except for using rabbit anti-p-cytosolic phospholipase A2 (cPLA2) antibody, rabbit anti-cPLA2 antibody, rabbit anti-ERK antibody and rabbit anti-p-ERK antibody (Cell Signaling) and using anti-rabbit IgG-HRP conjugation antibody (Zymed) as secondary antibody.

COX-2 = COX-2 expression induced by PMA and A23187 in human mast cells (Western blot); type: cell-based; conditions: HMC-1, homoisoflavanone 2 μg/mL or celecoxib 60 μM, 50 nM PMA + 1 μM A23187, 21 hours (FIG. 7a)
Description: In order to investigate the effect of homoisoflavanone on COX-2 expression induced by phorbol 12-myristate 13-acetate and A23187 in human mast cells, 1×10^6 HMC-1 cells were inoculated on a 100-mm culture dish and cultured in IMDM containing 10% FBS for 48 hours.

ERK [2] = experiment: UV-induced ERK phosphorylation in HaCaT cells (Western blot); type: cell-based, human; conditions: 1 μg/mL, UV (FIG. 2d)
Description: In order to identify the intracellular factors affecting COX-2 expression that are affected by homoisoflavanone, Western blotting was carried out in the same manner as in Example 2-1 except for treating with homoisoflavanone at 1 μg/mL, irradiating UV for 45 minutes and using rabbit anti-p-cytosolic phospholipase A2 (cPLA2) antibody, rabbit anti-cPLA2 antibody, rabbit anti-ERK antibody, rabbit anti-p-ERK antibody, rabbit anti-p38 antibody or rabbit anti-p-p38 antibody and using anti-rabbit IgG-HRP conjugation antibody (Zymed) as secondary antibody. Positive control groups were treated with 1 μM SB203580 (A.G. Scientific, Inc.) as p38 inhibitor or 10 μM PD98059 (A.G. Scientific, Inc.) as MEK 1 inhibitor instead of homoisoflavanone.

rat mast cells = experiment: Antigen (DNP-IgE/DNP-HSA)-induced degranulation of rat mast cells (hexosaminidase release); type: cell-based; conditions: at 2 μg/mL, DNP-IgE / 10 ng/mL DNP-HSA, concentration-dependent (FIG. 8c)
Description: Further, the effect of homoisoflavanone on degranulation of rat mast cells induced by antigen was investigated. 5×10^4 rat mast cells were inoculated on a 6-well plate and cultured in MEM containing 15% FBS for 24 hours. Then, after reacting with 1 μg/mL DNP-IgE for 16 hours and then removing DNP-IgE by washing with PBS, the cells were cultured in 15% MEM for 6 hours. After pretreating with homoisoflavanone in Tyrode's solution for 30 minutes, the cells were treated with 10 ng/mL DNP-human serum albumin (HSA) to induce degranulation by transmitting the signals induced by the antigen. 30 minutes later, the supernatant was collected and the pellets were lysed with 0.5% triton X-100 (500 μL). The supernatant and the lysed pellets (70 μL) were incubated at 37° C. for 90 minutes in 0.1 M sodium citrate solution (pH 4.5) containing 8 mM p-nitrophenyl-N-acetyl-β-d-glucosaminide (70 μL). Then, after adding 0.2 M glycine (pH 10.7, 70 μL) to stop the reaction, absorbance was measured at 405 nm. Total enzymatic activity was calculated by the following equation.
Release amount=(Absorbance of supernatant)÷(Absorbance of supernatant+Absorbance of pellets)×100%

NF-κB = experiment: UV-induced NF-κB nuclear translocation in HaCaT cells (immunocytochemical staining); type: cell-based, human; conditions: 1 μg/mL, UV 100 J/m^2, 4 hours (FIG. 2e)
Description: In order to investigate whether the transcription factor NF-κB is activated, human keratinocytes HaCaT cells were immunocytochemically stained as follows.
After inoculating the cells on a 14-mm culture slide, the cells were cultured in DMEM containing 10% FBS for 24 hour. Then, the cells were starved by culturing for 24 hours in DMEM containing 1% FBS. Then, after treating with homoisoflavanone at 1 μg/mL for 1 hour, the cells were washed 3 times with PBS and irradiated with UV at 100 J/m^2. Immediately after the UV radiation, the cells were washed again with PBS and further cultured for 4 hours in DMEM containing 1% FBS while treating with homoisoflavanone at the same concentration. Then, the cells were fixed with methanol for 5 minutes and then subjected to immunocytochemical staining.
The fixed cells were blocked with 10% normal goat serum and then washed 3 times with PBS. Then, after fluorescence staining NF-κB using rabbit anti-NF-κB antibody (SantaCruz, USA) and Alexa 488-conjugated anti-rabbit IgG secondary antibody (Invitrogen, USA), counter staining was carried out using Hoechst (Sigma, St. Louis, Mo.).

IL-6 = IL-6 mRNA expression induced by PMA and A23187 in HMC-1 (real-time PCR); type: cell-based, human; conditions: HMC-1, 2 μg/mL, 50 nM PMA + 1 μM A23187, 5 hours (FIG. 6c)
Description: In order to investigate the effect of homoisoflavanone on the release of pro-inflammatory cytokines induced by phorbol 12-myristate 13-acetate and A23187 in HMC-1, 5×10^5 HMC-1 cells were inoculated on a 60-mm culture dish and cultured in IMDM containing 10% FBS for 48 hours. Then, after treating with homoisoflavanone at 2 μg/mL, the cells were treated with 50 nM phorbol 12-myristate 13-acetate and 1 μM A23187 to induce release of pro-inflammatory cytokines, and then further cultured for 5 hours.
After extracting RNA from the cells of each test group using TRIzol, cDNA was prepared by carrying out PCR using the RNA as a template. Then, the mRNA expression of IL-6 and IL-8 was measured through real-time PCR using the cDNA as template and using commercially available IL-6 and IL-8 primers. The expression level of the pro-inflammatory cytokines was compared relative to the non-treated group.

COc1ccc(CC2COc3cc(O)cc(O)c3C2=O)cc1O (stereo not shown) [homoisoflavanone]
expression of IL-8 (mRNA) induced by UV (IL-8): decreased expression
ERK phosphorylation (ERK [1]): no effect
inhibition of COX-2 expression (COX-2): 80%
phosphorylation of ERK (ERK [2]): inhibited
inhibition of antigen-induced degranulation (hexosaminidase release) (rat mast cells): 50%
migration of NF-κB into the nucleus induced by UV radiation (NF-κB): inhibits
inhibition of release (mRNA expression) of IL-6 (IL-6): 50%
